Results from PMC10147607, “MSI2 promotes translation of multiple IRES-containing oncogenes and virus to induce self-renewal of tumor initiating stem-like cells” (Cell Death Discovery, 2023).

Experiments:
[1] = molecular target: T1, MSI2 (full-length, wild type; recombinant MSI2) (Homo sapiens, UniProt Q96DH6); experiment: ligand binding curve, probably MST (method for gossypol not stated explicitly)
T1 construct: full-length recombinant MSI2, purified; His6-tagged in EMSA (MSI2-His6)

[2] = molecular target: T1, MSI2 (full-length, wild type; recombinant MSI2); experiment: microscale thermophoresis (MST); format: binding

T1 sequence (Q96DH6 whole entry): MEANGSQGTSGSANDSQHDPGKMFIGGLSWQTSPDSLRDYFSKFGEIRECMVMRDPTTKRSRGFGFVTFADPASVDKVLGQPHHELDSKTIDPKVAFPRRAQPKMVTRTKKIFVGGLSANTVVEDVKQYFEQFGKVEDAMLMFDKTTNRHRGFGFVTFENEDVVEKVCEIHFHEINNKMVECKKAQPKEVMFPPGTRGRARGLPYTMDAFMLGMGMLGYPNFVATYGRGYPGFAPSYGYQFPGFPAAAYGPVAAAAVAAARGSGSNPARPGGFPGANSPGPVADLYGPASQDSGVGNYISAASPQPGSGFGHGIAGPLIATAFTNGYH

Row | Kd [2] [µM] | SMILES | Kd [1] [µM]
1 | – | Cc1cc2c(C(C)C)c(O)c(O)c(C=O)c2c(O)c1-c1c(C)cc2c(C(C)C)c(O)c(O)c(C=O)c2c1O [Gossypol] | 35
2 | 1.2 | CC(C)(Sc1ccc(CCN(CCCCC2CCCCC2)C(=O)NC2CCCCC2)cc1)C(=O)O [GW7647] | –
